Laboratory results reported in PubChem BioAssay AID2060893 (Molecular Pharmacology Branch, DTP, NCI, 2025).
Blank lines part the entries; values can stand above or below the molecule they belong to.

Test system: K86415-001-R-J1-PDC complex spheroids, viability
Assay: Anticancer human tumor K86415-001-R-J1-PDC patient-derived lung adenocarcinoma cell line growth inhibition [RAS]
Details: for IC50: curve of first compound; for viability, T/C: stronger effect = lower value
Outline: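 Multi-cell-type spheroids: tumor cells plus HUVEC endothelial cells and mesenchymal stem cells. RAS-pathway inhibitors were combined with targeted agents, each dosed in half-log steps down from clinical Cmax, or from 10 microM when Cmax was unknown.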

[1] = second compound 0.00316 µM, first compound 0.0316 µM
[2] = second compound 0.00316 µM, first compound 0.1 µM
[3] = second compound 0.00316 µM, first compound 0.316 µM
[4] = second compound 0.00316 µM, first compound 1 µM
[5] = second compound 0.01 µM, first compound 0.0316 µM
[6] = second compound 0.01 µM, first compound 0.1 µM
[7] = second compound 0.01 µM, first compound 0.316 µM
[8] = second compound 0.01 µM, first compound 1 µM
[9] = second compound 0.0316 µM, first compound 0.0316 µM
[10] = second compound 0.0316 µM, first compound 0.1 µM
[11] = second compound 0.0316 µM, first compound 0.316 µM
[12] = second compound 0.0316 µM, first compound 1 µM
[13] = second compound 0.1 µM, first compound 0.0316 µM
[14] = second compound 0.1 µM, first compound 0.1 µM
[15] = second compound 0.1 µM, first compound 0.316 µM
[16] = second compound 0.1 µM, first compound 1 µM
[17] = second compound 0.316 µM, first compound 0.0316 µM
[18] = second compound 0.316 µM, first compound 0.1 µM
[19] = second compound 0.316 µM, first compound 0.316 µM
[20] = second compound 0.316 µM, first compound 1 µM
[21] = second compound 1 µM, first compound 0.0316 µM
[22] = second compound 1 µM, first compound 0.1 µM
[23] = second compound 1 µM, first compound 0.316 µM
[24] = second compound 1 µM, first compound 1 µM
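Note: spheroids exposed to agents for seven days before readout.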

IC50 (second compound 0.00316 µM): < 0.00316 µM
IC50 (second compound 0.01 µM): < 0.00316 µM
IC50 (second compound 0.0316 µM): < 0.00316 µM
IC50 (second compound 0.1 µM): < 0.00316 µM
IC50 (second compound 0.316 µM): < 0.00316 µM
IC50 (second compound 1 µM): < 0.00316 µM
SMILES: C=CC(=O)Nc1cc(Nc2nccc(-c3cn(C)c4ccccc34)n2)c(OC)cc1N(C)CCN(C)C + C=CC(=O)N1CCN(c2nc(OCC3CCCN3C)nc3c(F)c(-c4nc(N)cc(C)c4C(F)(F)F)c(Cl)cc23)C(C)C1
viability, T/C (second compound 0.00316 µM, first compound 0.00316 µM): 19.7%
viability, T/C (second compound 0.00316 µM, first compound 0.01 µM): 17.1%
viability, T/C [1]: 15.6%
viability, T/C [2]: 13.2%
viability, T/C [3]: 8.17%
viability, T/C [4]: 7.25%
viability, T/C (second compound 0.01 µM, first compound 0.00316 µM): 11.2%
viability, T/C (second compound 0.01 µM, first compound 0.01 µM): 10.3%
viability, T/C [5]: 11%
viability, T/C [6]: 8.19%
viability, T/C [7]: 6.56%
viability, T/C [8]: 6.11%
viability, T/C (second compound 0.0316 µM, first compound 0.00316 µM): 10.1%
viability, T/C (second compound 0.0316 µM, first compound 0.01 µM): 11.4%
viability, T/C [9]: 8.27%
viability, T/C [10]: 6%
viability, T/C [11]: 5.17%
viability, T/C [12]: 5.86%
viability, T/C (second compound 0.1 µM, first compound 0.00316 µM): 10%
viability, T/C (second compound 0.1 µM, first compound 0.01 µM): 9.55%
viability, T/C [13]: 8.9%
viability, T/C [14]: 7.91%
viability, T/C [15]: 5.85%
viability, T/C [16]: 5.65%
viability, T/C (second compound 0.316 µM, first compound 0.00316 µM): 8.48%
viability, T/C (second compound 0.316 µM, first compound 0.01 µM): 10.5%
viability, T/C [17]: 11.3%
viability, T/C [18]: 6.83%
viability, T/C [19]: 5.85%
viability, T/C [20]: 5.41%
viability, T/C (second compound 1 µM, first compound 0.00316 µM): 11%
viability, T/C (second compound 1 µM, first compound 0.01 µM): 10.2%
viability, T/C [21]: 7.67%
viability, T/C [22]: 8.2%
viability, T/C [23]: 7.08%
viability, T/C [24]: 6.01%

IC50 (second compound 0.00316 µM): < 0.0316 µM
IC50 (second compound 0.01 µM): < 0.0316 µM
IC50 (second compound 0.0316 µM): < 0.0316 µM
IC50 (second compound 0.1 µM): < 0.0316 µM
IC50 (second compound 0.316 µM): < 0.0316 µM
IC50 (second compound 1 µM): < 0.0316 µM
SMILES: CC(C)NCC(C(=O)N1CCN(c2ncnc3c2C(C)CC3O)CC1)c1ccc(Cl)cc1 (centres undefined) + C=CC(=O)N1CCN(c2nc(OCC3CCCN3C)nc3c(F)c(-c4nc(N)cc(C)c4C(F)(F)F)c(Cl)cc23)C(C)C1
viability, T/C [1]: 15.9%
viability, T/C [2]: 17.9%
viability, T/C [3]: 13.7%
viability, T/C [4]: 11.4%
viability, T/C (second compound 0.00316 µM, first compound 3.16 µM): 22.4%
viability, T/C (second compound 0.00316 µM, first compound 10 µM): 18.6%
viability, T/C [5]: 13.2%
viability, T/C [6]: 14.1%
viability, T/C [7]: 8.15%
viability, T/C [8]: 7.26%
viability, T/C (second compound 0.01 µM, first compound 3.16 µM): 9.79%
viability, T/C (second compound 0.01 µM, first compound 10 µM): 5.61%
viability, T/C [9]: 11.2%
viability, T/C [10]: 12.1%
viability, T/C [11]: 6.32%
viability, T/C [12]: 6.17%
viability, T/C (second compound 0.0316 µM, first compound 3.16 µM): 6.03%
viability, T/C (second compound 0.0316 µM, first compound 10 µM): 3.62%
viability, T/C [13]: 17.1%
viability, T/C [14]: 9.65%
viability, T/C [15]: 7.67%
viability, T/C [16]: 4.58%
viability, T/C (second compound 0.1 µM, first compound 3.16 µM): 6.35%
viability, T/C (second compound 0.1 µM, first compound 10 µM): 2.96%
viability, T/C [17]: 12.1%
viability, T/C [18]: 8.49%
viability, T/C [19]: 6.58%
viability, T/C [20]: 5.42%
viability, T/C (second compound 0.316 µM, first compound 3.16 µM): 7.11%
viability, T/C (second compound 0.316 µM, first compound 10 µM): 4.04%
viability, T/C [21]: 9.4%
viability, T/C [22]: 10.8%
viability, T/C [23]: 7.39%
viability, T/C [24]: 6.41%
viability, T/C (second compound 1 µM, first compound 3.16 µM): 5.23%
viability, T/C (second compound 1 µM, first compound 10 µM): 3.49%
